Source: patent US20240261375A1, “PHARMACEUTICAL COMPOSITION FOR TREATING OR PREVENTING DISORDER ASSOCIATED WITH ADMINISTRATION OF ANTICANCER AGENT” (LTT BIO-PHARMA CO., LTD., priority 2021, published 2024)

Experiments:
[1] = tested on: oxaliplatin-induced allodynia model rats; test: Von Frey test in oxaliplatin-induced allodynia model rats; assay type: in vivo, rat; conditions: OXA 4 mg/kg i.p. 8 doses, prophylactic, FIG. 1
Experimental: Six to eight-week-old male SD rats (from 200 to 400 g) were used, and oxaliplatin (hereinafter may be abbreviated as OXA) was administered into the peritoneal cavity of rats at a dose of 4 mg/kg. A total of eight doses were given with a regimen of twice weekly for four weeks (Days 1, 2, 7, 8, 13, 14, 19, and 20). A solvent for OXA, i.e., a 5% glucose solution, was similarly administered to a control group. Elplat I.V. Infusion Solution 100 mg (Yakult Honsha Co., Ltd.) was used as OXA.
Laboratory animals were divided into five groups: a control group, an OXA administration group, and groups each receiving administration of OXA and PC-SOD 0.1, 0.3, or 1 mg/kg (OXA+PC-SOD administration groups) (n=8 per group). In an experiment of prevention, PC-SOD was administered into the caudal vein from 5 to 15 minutes after administration of OXA in the OXA+PC-SOD administration group. […]
Data were expressed with mean±standard error (SEM). Statistical processing of the results was performed by Student's t test for comparison of two groups and ANOVA one way test (post-hoc Tukey's test) for comparison of three or more groups, and a statistically significant difference was determined when the hazard ratio was 5% or lower (*, **, and *** in the figures: p<0.05, p<0.01, and p<0.001, respectively).

[2] = tested on: intraepidermal nerve fiber of OXA-treated rats; test: Assessment of density of intraepidermal nerve fiber (PGP9.5 staining); assay type: in vivo, rat; conditions: OXA+PC-SOD 1 mg/kg; FIG. 3
Experimental: Rat epidermis tissue was fixed with a 4% paraformaldehyde fixative and washed with PBS 24 hours later, and a frozen block was prepared. A frozen slice having a thickness of 50 μm was prepared from the prepared block by using Cryostat (CM3050S, Leica Biosystems), and a 0.2% Triton-X solution was added as permeabilization treatment to allow the mixture to react for 10 minutes. Nerve fiber was allowed to react with Anti-PGP9.5 antibody (Ultraclone Ltd.) at 4° C. overnight, then it was washed with PBST, and allowed to react with a secondary fluorescence antibody (Goat anti-Rabbit IgG Alexa Fluor 488, Invitrogen). After the reaction was done at room temperature for one hour, the nerve fiber was washed, rinsed, followed by dropwise addition of […] with DAPI H-1200 (Vector Laboratories), and enclosed, and two to three images of each sample captured at 200-fold magnification were saved (Scale bar=100 μm) by using a fluorescence microscope BZ-X800 (Keyence Corporation).

[3] = tested on: liver of OXA-treated rats; test: Pathological assessment of liver disorder caused by oxaliplatin (HE staining); assay type: in vivo, rat; conditions: PC-SOD 1 mg/kg, mangafodipir dose not given, FIG. 5
Description: A liver tissue was collected and fixed with 10% neutral buffered formalin to prepare a paraffin block by using Histos 5 (Milestone) and an embedding center (EG1160, Leica). The sample block was thinly sliced at a thickness of 3 μm by using a microtome (MR2245, Leica) to prepare a slide. The prepared slide was stained by HE staining, enclosed, and observed at 200 and 400-fold magnifications by using the optical microscope function of All-in-One Fluorescence Microscope (BZ-X800, Keyence Corporation). Observation and assessment were performed by observing the whole section. Two to four representative tissue images were randomly taken up, and alteration in the tissue structure, such as inflammation and necrosis, was observed and assessed (Scale bar=200 μm).

[4] = tested on: RAW cells; test: Toxicity of anticancer agents against RAW cells (CellTiter-Glo viable cell count); assay type: cell-based; conditions: gemcitabine, oxaliplatin, cisplatin or carboplatin with simultaneous PC-SOD, 24 hours; FIG. 12-2
Experimental: RAW cells were seeded on a 96-well plate at 20 000 cells/well (D-MEM high glucose medium containing 10% inactivated FBS). […] The number of viable cells was counted 24 hours later by measuring chemical luminescence by using CellTiter-Glo™ 2.0 Cell Viability Assay (Promega) and a plate reader (Tecan, Infinite M Plex). Cells for four wells were analyzed for each group.

[5] = tested on: peripheral blood cells of CIS-treated rats; test: Assessment of myelosuppression caused by cisplatin (peripheral blood cell count); assay type: in vivo, rat; conditions: CIS 3 mg/kg i.p. 8 doses, PC-SOD 1 mg/kg caudal vein, FIG. 14
Experimental: Six to eight-week-old male SD rats (from 200 to 400 g) were used. […] A total of eight doses were given with a regimen of twice weekly for four weeks (Days 1, 2, 7, 8, 13, 14, 19, and 20). A solvent for CIS, i.e., physiological saline, was similarly administered to a control group. […] Laboratory animals were divided into three groups: a control group, a CIS administration group, and a group receiving administration of CIS and PC-SOD 1 mg/kg (CIS+PC-SOD administration group) (n=6 per group). For an experiment of prevention, PC-SOD was administered into the caudal vein from five to 15 minutes after CIS administration in the CIS+PC-SOD administration group. A total of eight doses were given with a regimen of twice weekly for four weeks, (Days 1, 2, 7, 8, 13, 14, 19, and 20). A solvent for PC-SOD was similarly administered to the control group and the CIS administration group. Peripheral blood was collected from the rat caudal vein three days later, and peripheral blood was analyzed by using an automated blood cell counter (MEK-6458, Nihon Kohden Corporation).

lecithinized superoxide dismutase [PC-SOD]
decrease in pain sensation threshold caused by OXA (von Frey test) ([1]; PC-SOD 1 mg/kg caudal vein): significantly suppressed
decrease in pain sensation threshold caused by OXA (von Frey test) ([1]; PC-SOD 0.1, 0.3 and 1 mg/kg caudal vein): suppressed by PC-SOD in a concentration-dependent manner
decrease in density of intraepidermal nerve fiber caused by OXA [2]: a suppressive effect on the decrease in density of intraepidermal nerve fiber caused by OXA was observed
necrosis of liver cells caused by OXA [3]: a suppressive effect on necrosis of liver cells caused by OXA was shown
anticancer agent-dependent decrease in number of viable RAW cells [4]: significantly suppressed the anticancer agent-dependent decreases in the number of viable cells dependently on the concentration of PC-SOD
decrease in platelets (PLTs) caused by CIS [5]: decreases in WBCs and PLTs were suppressed
decrease in white blood cells (WBCs) caused by CIS [5]: decreases in WBCs and PLTs were suppressed
